The values that follow come from BindingDB's records for patent US10087191 (Jiangsu Hengrui Medicine, 2018).

The assay concerns the target T1, Estrogen receptor (Homo sapiens, UniProt P03372).
T1 sequence (P03372 whole entry): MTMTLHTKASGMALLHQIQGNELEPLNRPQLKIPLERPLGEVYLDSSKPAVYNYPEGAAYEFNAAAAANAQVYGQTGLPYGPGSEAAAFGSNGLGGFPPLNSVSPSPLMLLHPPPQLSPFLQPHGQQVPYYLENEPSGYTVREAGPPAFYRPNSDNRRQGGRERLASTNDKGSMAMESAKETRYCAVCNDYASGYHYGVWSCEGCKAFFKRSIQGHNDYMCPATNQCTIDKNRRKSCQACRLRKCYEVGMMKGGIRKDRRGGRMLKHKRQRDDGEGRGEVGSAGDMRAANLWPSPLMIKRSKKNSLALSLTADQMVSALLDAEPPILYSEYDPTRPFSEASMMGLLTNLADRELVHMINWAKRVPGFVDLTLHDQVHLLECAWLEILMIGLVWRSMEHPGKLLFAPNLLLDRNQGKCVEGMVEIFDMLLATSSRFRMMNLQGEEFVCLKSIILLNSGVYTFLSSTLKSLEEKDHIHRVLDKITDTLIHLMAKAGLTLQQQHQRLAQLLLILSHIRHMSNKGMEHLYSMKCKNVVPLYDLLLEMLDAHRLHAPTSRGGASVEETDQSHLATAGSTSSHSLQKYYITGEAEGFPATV
Nature of the assay: Biological Assay.

For `CC1Cc2cc(-c3nnn(C)n3)ccc2C(c2c(F)cc(/C=C/C(=O)O)cc2F)N1CC(C)(C)F` (stereo not given) [US10087191, Example 51], the IC50 came out at 7.43 nM. In other words, the single-digit nanomolar range.

The compound `CC1Cc2cc(-c3cnn(C(F)F)c3)ccc2C(c2c(F)cc(/C=C/C(=O)O)cc2F)N1CC(C)(C)F` (stereo not given) [US10087191, Example 13] registered an IC50 of 2.11 nM.

Take `CC1Cc2sc3ccccc3c2C(c2c(F)cc(/C=C/C(=O)O)cc2F)N1CC(C)(C)F` (stereo not given) [US10087191, Example 6]: the IC50 came out at 4.9 nM.

`CC1Cc2c(ccc3[nH]ncc23)C(c2c(F)cc(/C=C/C(=O)O)cc2F)N1CC(C)(C)F` (stereo not given) [US10087191, Example 70] returned an IC50 of 0.77 nM.

On to `CC1Cc2cc(-c3ccc(-c4cnn(C)c4)nc3)ccc2C(c2c(F)cc(/C=C/C(=O)O)cc2F)N1CC(C)(C)F` (stereo not given) [US10087191, Example 61], for which the IC50 came to 17.4 nM.

In turn, `CC1Cc2c(oc3cccc(F)c23)C(c2c(F)cc(/C=C/C(=O)O)cc2F)N1CC(C)(C)F` (stereo not given) [US10087191, Example 73] returned an IC50 of 0.45 nM.

Regarding `CC1Cc2cc(-c3cnn(CCO)c3)ccc2C(c2c(F)cc(/C=C/C(=O)O)cc2F)N1CC(C)(C)F` (stereo not given) [US10087191, Example 23], the midpoint of inhibition, the IC50, lay at 27.3 nM.

`CC1Cc2cc(-c3ccc(N)nc3)ccc2C(c2c(F)cc(/C=C/C(=O)O)cc2F)N1CC(C)(C)F` (stereo not given) [US10087191, Example 27]: the IC50 is 19.8 nM.

`CCc1nc(-c2ccc3c(c2)CC(C)N(CC(C)(C)F)C3c2c(F)cc(/C=C/C(=O)O)cc2F)no1` (stereo not given) [US10087191, Example 46] yielded an IC50 of 11.4 nM.

`CCCn1cc(-c2ccc3c(c2)CC(C)N(CC(C)(C)F)C3c2c(F)cc(/C=C/C(=O)O)cc2F)cn1` (stereo not given) [US10087191, Example 18] had an IC50 of 1.52 nM. This IC50 lies about 7.5-fold lower than the previous one.

For the compound `Cc1ncc(-c2ccc3c(c2)CC(C)N(CC(C)(C)F)C3c2c(F)cc(/C=C/C(=O)O)cc2F)o1` (stereo not given) [US10087191, Example 49], the midpoint of inhibition, the IC50, lay at 3.4 nM. This IC50 is about 2.2-fold higher than that of the compound before.

For the compound `CC1Cc2cc(-c3cccnc3)ccc2C(c2c(F)cc(/C=C/C(=O)O)cc2F)N1CC(C)(C)F` (stereo not given) [US10087191, Example 28], the IC50 came out at 2.28 nM.

Compound `CC1Cc2cc(-c3cnn(C)c3)c(F)cc2C(c2c(F)cc(/C=C/C(=O)O)cc2F)N1CC(C)(C)F` (stereo not given) [US10087191, Example 16] displayed an IC50 of 1.36 nM.

The compound `CCn1cc(-c2ccc3oc4c(c3c2)CC(C)N(CC(C)(C)F)C4c2c(F)cc(/C=C/C(=O)O)cc2F)cn1` (stereo not given) [US10087191, Example 76] showed an IC50 of 1.39 nM.

The compound `CC1Cc2cc3c(cc2C(c2c(F)cc(/C=C/C(=O)O)cc2F)N1CC(C)(C)F)OCO3` (stereo not given) [US10087191, Example 1] registered an IC50 of 0.77 nM.

`CC1Cc2c(oc3ccccc23)C(c2c(F)cc(/C=C/C(=O)O)cc2F)N1CC(C)(C)F` (stereo not given) [US10087191, Example 4]: the IC50 was found to be 0.73 nM.

The compound `CCn1cc(-c2cc3c(cc2F)C(c2c(F)cc(/C=C/C(=O)O)cc2F)N(CC(C)(C)F)C(C)C3)cn1` (stereo not given) [US10087191, Example 17] gave an IC50 of 1.17 nM. This IC50 lies about 1.6-fold higher than the previous one.

`CC1Cc2c(oc3c(F)cccc23)C(c2c(F)cc(/C=C/C(=O)O)cc2F)N1CC(C)(C)F` (stereo not given) [US10087191, Example 84] returned an IC50 of 2.97 nM.

Turning to `CC(C)CN1C(C)Cc2c(ccc3[nH]ncc23)C1c1c(F)cc(/C=C/C(=O)O)cc1F` (stereo not given) [US10087191, Example 92], the IC50 came to 0.43 nM. This IC50 lies about 6.9-fold lower than the previous one.

In turn, `CC1Cc2c(oc3ccc(Br)cc23)C(c2c(F)cc(/C=C/C(=O)O)cc2F)N1CC(C)(C)F` (stereo not given) [US10087191, Example 87] gave an IC50 of 15 nM.
